Source: patent publication US4436751A, “Nitrobenzyl monates antibacterial compounds” (Beecham Group Limited, priority 1980, dated 1984)
In brackets after ≈: the same amount, converted by molar mass. Where two headings read alike, the source gives them in different places.

Experiments:
Type in all cases: cell-based
M. hyorhinis ATCC 25021 = assay: Anti-mycoplasmal MIC in vitro, Friis broth agarose (Table 1); conditions: Mesomycoplasma hyorhinis, ATCC25021, 144 h
[1] = tested on: M. suipneumoniae NCTC 10110; assay: as above; conditions: Mesomycoplasma hyopneumoniae, NCTC10110, 144 h
M. suipneumoniae HR(2) = assay: as above; conditions: Mesomycoplasma hyopneumoniae, 144 h
M. pneumoniae ATCC 15492 = assay: as above; conditions: Mycoplasmoides pneumoniae, ATCC15492, 144 h
[2] = tested on: M. hyosynoviae ATOC 25591; assay: as above; conditions: 144 h
P. mirabilis 889 = assay: Human bacteria MIC, nutrient agar with chocolated horse blood (Table 3)
Description: (§1) The values were determined by serial dilutions in nutrient agar with 5% chocolated horse blood after incubations for 18 hours at 37° C.

Staph. aureus W2827 = assay: as above; conditions: Staphylococcus aureus
Description: as §1

Strep. pneumoniae CN33 = assay: as above; conditions: Streptococcus pneumoniae
Description: as §1

Bacillus subtilis 6633 = assay: as above
Description: as §1

Sarcina lutea 8340 = assay: as above
Description: as §1

[3] = tested on: Haemophilus influenzae Q1; assay: as above
Description: as §1

E. coli ESS = assay: as above; conditions: Escherichia coli, 18 h
Description: as §1

[4] = tested on: Ps. aeruginosa NCTC 10662; assay: as above; conditions: Pseudomonas aeruginosa
Description: as §1

K. aerogenes A = assay: as above; conditions: Klebsiella aerogenes
Description: as §1

[5] = tested on: Neisseria catarrhalis 1502; assay: as above
Description: as §1

[6] = tested on: Corynebacterium xerosis 9755; assay: as above
Description: as §1

[7] = tested on: Strep. pyogenes R80/421-A; assay: as above; conditions: Streptococcus pyogenes
Description: as §1

Strep. faecalis 1 = assay: as above
Description: as §1

Strep. 641848-C = assay: as above
Description: as §1

Staph. aureus Russell = assay: as above; conditions: Staphylococcus aureus
Description: as §1

[8] = tested on: Pasteurella multocida 1633; assay: as above
Description: as §1

Staph. aureus Oxford = assay: as above; conditions: Staphylococcus aureus
Description: as §1

E. Coli NCTC 10418 = assay: as above; conditions: Escherichia coli
Description: as §1

M. suipneumoniae JF 435 = assay: Anti-mycoplasmal MIC in vitro, Friis broth agarose (Table 1); conditions: Mesomycoplasma hyopneumoniae, JF435, 144 h
[9] = tested on: M. suipneumoniae J2206/183b; assay: as above; conditions: Mesomycoplasma hyopneumoniae, 144 h
M. suipneumoniae NB12 = assay: as above; conditions: Mesomycoplasma hyopneumoniae, NB12, 144 h
M. dispar RCTC 10125 = assay: as above; conditions: 144 h
M. suipneumoniae TAM 6N = assay: as above; conditions: Mesomycoplasma hyopneumoniae, TAM6N, 144 h
[10] = Haemophilus influenzae, Q1, 18 h
[11] = Corynebacterium xerosis, 9755, 18 h
[12] = Pasteurella multocida, 1633, 18 h

`C/C(=C\C(=O)OCc1cc([N+](=O)[O-])cc([N+](=O)[O-])c1)CC1OCC(CC2OC2C(C)C(C)O)C(O)C1O` (centres unmarked) [Example 6, 3,5-dinitrobenzyl monate A] was tested, and the MIC (M. hyorhinis ATCC 25021) was 0.025 µg/mL (≈ 0.0477 µM), the MIC [1] was 0.05 µg/mL (≈ 0.0953 µM) and the MIC (M. suipneumoniae HR(2)) was 0.05 µg/mL (≈ 0.0953 µM). For the same compound, the MIC (M. pneumoniae ATCC 15492) was 2.5 µg/mL (≈ 4.77 µM), the MIC [2] was 0.025 µg/mL (≈ 0.0477 µM) and the MIC (P. mirabilis 889; Proteus mirabilis, 889, 18 h) was 100 µg/mL (≈ 191 µM). The MIC (Staph. aureus W2827; W2827, 18 h) was 1 µg/mL (≈ 1.91 µM), the MIC (Strep. pneumoniae CN33; CN33, 18 h) was 0.25 µg/mL (≈ 0.477 µM) and the MIC (Bacillus subtilis 6633; Bacillus subtilis, 6633, 18 h) was 0.5 µg/mL (≈ 0.953 µM). It also gave an MIC (Sarcina lutea 8340; Micrococcus luteus, 8340, 18 h) greater than 100 µg/mL, an MIC [3, 10] of 0.5 µg/mL (≈ 0.953 µM) and an MIC (E. coli ESS) of 1 µg/mL (≈ 1.91 µM). For the same compound, the MIC ([4]; NCTC10662, 18 h) was greater than 100 µg/mL, the MIC (K. aerogenes A; 18 h) was 100 µg/mL (≈ 191 µM) and the MIC ([5]; Neisseria, 1502, 18 h) was less than 0.025 µg/mL. It also gave an MIC [6, 11] greater than 100 µg/mL, an MIC ([7]; R80/421A, 18 h) of 0.25 µg/mL (≈ 0.477 µM) and an MIC (Strep. faecalis 1; Enterococcus faecalis, 1, 18 h) greater than 100 µg/mL. It also gave an MIC (Strep. 641848-C; 18 h) of 0.5 µg/mL (≈ 0.953 µM), an MIC (Staph. aureus Russell; 18 h) of 1 µg/mL (≈ 1.91 µM) and an MIC [8, 12] of 0.5 µg/mL (≈ 0.953 µM). It also gave an MIC (Staph. aureus Oxford; 18 h) of 0.5 µg/mL (≈ 0.953 µM), an MIC (E. Coli NCTC 10418; NCTC10418, 18 h) of 100 µg/mL (≈ 191 µM) and an MIC (M. suipneumoniae JF 435) of 0.05 µg/mL (≈ 0.0953 µM). For the same compound, the MIC ([9]; J2206/183B) was 0.05 µg/mL (≈ 0.0953 µM), the MIC (M. suipneumoniae NB12) was 0.05 µg/mL (≈ 0.0953 µM) and the MIC (M. dispar RCTC 10125) was no more than 0.01 µg/mL. The MIC (M. suipneumoniae TAM 6N) was 0.05 µg/mL (≈ 0.0953 µM).

Compound `C/C(=C\C(=O)OCc1cc([N+](=O)[O-])cc([N+](=O)[O-])c1C)CC1OCC(CC2OC2C(C)C(C)O)C(O)C1O` (centres unmarked) [Example 7, 3,5-dinitro-2-methylbenzyl monate A] has an MIC (M. hyorhinis ATCC 25021) of 0.1 µg/mL (≈ 0.186 µM), an MIC [1] of 0.25 µg/mL (≈ 0.464 µM) and an MIC (M. suipneumoniae HR(2)) of 0.25 µg/mL (≈ 0.464 µM). For the same compound, the MIC (M. pneumoniae ATCC 15492) was 2.5 µg/mL (≈ 4.64 µM), the MIC [2] was 0.1 µg/mL (≈ 0.186 µM) and the MIC (P. mirabilis 889; Proteus mirabilis, 889, 18 h) was greater than 100 µg/mL. The MIC (Staph. aureus W2827; W2827, 18 h) was 2.5 µg/mL (≈ 4.64 µM), the MIC (Strep. pneumoniae CN33; CN33, 18 h) was 0.5 µg/mL (≈ 0.928 µM) and the MIC (Bacillus subtilis 6633; Bacillus subtilis, 6633, 18 h) was 1 µg/mL (≈ 1.86 µM). The MIC (Sarcina lutea 8340; Micrococcus luteus, 8340, 18 h) was greater than 100 µg/mL, the MIC [3, 10] was 1 µg/mL (≈ 1.86 µM) and the MIC (E. coli ESS) was 2.5 µg/mL (≈ 4.64 µM). The MIC ([4]; NCTC10662, 18 h) was greater than 100 µg/mL, the MIC (K. aerogenes A; 18 h) was greater than 100 µg/mL and the MIC ([5]; Neisseria, 1502, 18 h) was 0.25 µg/mL (≈ 0.464 µM). The MIC [6, 11] was greater than 100 µg/mL, the MIC ([7]; R80/421A, 18 h) was 0.25 µg/mL (≈ 0.464 µM) and the MIC (Strep. faecalis 1; Enterococcus faecalis, 1, 18 h) was greater than 100 µg/mL. The MIC (Strep. 641848-C; 18 h) was 1 µg/mL (≈ 1.86 µM), the MIC (Staph. aureus Russell; 18 h) was 1 µg/mL (≈ 1.86 µM) and the MIC [8, 12] was 5 µg/mL (≈ 9.28 µM). The MIC (Staph. aureus Oxford; 18 h) was 1 µg/mL (≈ 1.86 µM), the MIC (E. Coli NCTC 10418; NCTC10418, 18 h) was greater than 100 µg/mL and the MIC (M. suipneumoniae JF 435) was 0.25 µg/mL (≈ 0.464 µM). It also gave an MIC ([9]; J2206/183B) of 0.25 µg/mL (≈ 0.464 µM), an MIC (M. suipneumoniae NB12) of 0.25 µg/mL (≈ 0.464 µM) and an MIC (M. dispar RCTC 10125) of 0.05 µg/mL (≈ 0.0928 µM). It also gave an MIC (M. suipneumoniae TAM 6N) of 0.25 µg/mL (≈ 0.464 µM).

With `C/C(=C\C(=O)OCc1cccc([N+](=O)[O-])c1C)CC1OCC(CC2OC2C(C)C(C)O)C(O)C1O` (centres unmarked) [Example 8, 2-methyl-3-nitrobenzyl monate A] the MIC (M. hyorhinis ATCC 25021) was 0.1 µg/mL (≈ 0.203 µM), the MIC [1] was 0.1 µg/mL (≈ 0.203 µM) and the MIC (M. suipneumoniae HR(2)) was 0.1 µg/mL (≈ 0.203 µM). It also gave an MIC ([2]; M. hyosynoviae ATOC 25591, in vitro, 6 days 37° C., read-out: MIC) of 0.05 µg/mL (≈ 0.101 µM), an MIC (P. mirabilis 889; Proteus mirabilis, P. mirabilis 889, nutrient agar 5% chocolated horse blood, 18 hours 37° C., read-out: MIC) greater than 100 µg/mL and an MIC (Staph. aureus W2827; Staph. aureus W2827, nutrient agar 5% chocolated horse blood, 18 hours 37° C., read-out: MIC) of 2.5 µg/mL (≈ 5.07 µM). The MIC (Strep. pneumoniae CN33; Strep. pneumoniae CN33, nutrient agar 5% chocolated horse blood, 18 hours 37° C., read-out: MIC) was 0.5 µg/mL (≈ 1.01 µM), the MIC (Bacillus subtilis 6633; Bacillus subtilis 6633, nutrient agar 5% chocolated horse blood, 18 hours 37° C., read-out: MIC) was 0.25 µg/mL (≈ 0.507 µM) and the MIC (Sarcina lutea 8340; Micrococcus luteus, Sarcina lutea 8340, nutrient agar 5% chocolated horse blood, 18 hours 37° C., read-out: MIC) was greater than 100 µg/mL. The MIC ([3]; Haemophilus influenzae Q1, nutrient agar 5% chocolated horse blood, 18 hours 37° C., read-out: MIC) was 0.5 µg/mL (≈ 1.01 µM), the MIC (E. coli ESS) was 1 µg/mL (≈ 2.03 µM) and the MIC ([4]; NCTC10662, Ps. aeruginosa NCTC 10662, nutrient agar 5% chocolated horse blood, 18 hours 37° C., read-out: MIC) was greater than 100 µg/mL. The MIC (K. aerogenes A; K. aerogenes A, nutrient agar 5% chocolated horse blood, 18 hours 37° C., read-out: MIC) was greater than 100 µg/mL, the MIC ([5]; Neisseria catarrhalis 1502, nutrient agar 5% chocolated horse blood, 18 hours 37° C., read-out: MIC) was 0.25 µg/mL (≈ 0.507 µM) and the MIC ([6]; Corynebacterium xerosis 9755, nutrient agar 5% chocolated horse blood, 18 hours 37° C., read-out: MIC) was greater than 100 µg/mL. For the same compound, the MIC ([7]; Strep. pyogenes R80/421-A, nutrient agar 5% chocolated horse blood, 18 hours 37° C., read-out: MIC) was 0.25 µg/mL (≈ 0.507 µM), the MIC (Strep. faecalis 1; Enterococcus faecalis, Strep. faecalis 1, nutrient agar 5% chocolated horse blood, 18 hours 37° C., read-out: MIC) was 50 µg/mL (≈ 101 µM) and the MIC (Strep. 641848-C; Strep. 641848-C, nutrient agar 5% chocolated horse blood, 18 hours 37° C., read-out: MIC) was 0.5 µg/mL (≈ 1.01 µM). The MIC (Staph. aureus Russell; Staph. aureus Russell, nutrient agar 5% chocolated horse blood, 18 hours 37° C., read-out: MIC) was 2.5 µg/mL (≈ 5.07 µM), the MIC ([8]; Pasteurella multocida 1633, nutrient agar 5% chocolated horse blood, 18 hours 37° C., read-out: MIC) was 2.5 µg/mL (≈ 5.07 µM) and the MIC (Staph. aureus Oxford; Staph. aureus Oxford, nutrient agar 5% chocolated horse blood, 18 hours 37° C., read-out: MIC) was 2.5 µg/mL (≈ 5.07 µM). For the same compound, the MIC (E. Coli NCTC 10418; NCTC10418, E. coli NCTC 10418, nutrient agar 5% chocolated horse blood, 18 hours 37° C., read-out: MIC) was greater than 100 µg/mL, the MIC (M. suipneumoniae JF 435) was 0.1 µg/mL (≈ 0.203 µM) and the MIC ([9]; M. suipneumoniae J2206/183b, in vitro, 6 days 37° C., read-out: MIC) was 0.25 µg/mL (≈ 0.507 µM). It also gave an MIC (M. suipneumoniae NB12) of 0.1 µg/mL (≈ 0.203 µM), an MIC (M. dispar RCTC 10125; M. dispar RCTC 10125, in vitro, 6 days 37° C., read-out: MIC) of 0.05 µg/mL (≈ 0.101 µM) and an MIC (M. suipneumoniae TAM 6N; M. suipneumoniae TAM 6N, in vitro, 6 days 37° C., read-out: MIC) of 0.25 µg/mL (≈ 0.507 µM).
